According to patent publication US4394388A, “Method for the control of cattle grubs employing m-phenoxybenzyl and .alpha ” (American Cyanamid Company, priority 1981, dated 1983):

Tested on: Cuterebra sp.
Experiment: In vivo larvicidal activity against Cuterebra sp. in artificially infested mice (dermal dip)
Details: mice infested with 5 newly-hatched larvae, body dipped in emulsion 48 h later, larvae examined four days after treatment; for Dermal (mice) Dosage % LC50: concentration killing 50% of larvae; for Dermal (mice) Dosage % LC90: concentration killing 90% of larvae
Procedure: The larvidical activity of the compounds of the invention may be conveniently evaluated by a method accepted by the U.S. Agricultural Research Service, in which mice infected with Cuterebra spp. are treated topically with the compounds under evaluation.
White mice are artificially infested nasally, buccally, or ocularly with 5 newly-hatched larvae of Cuterebra sp. For dermal tests, 48 hours later a plastic collar is placed around the neck of each male mouse, and the portion of the body behind the collar is dipped in 200 ml of an emulsion of a test compound. A standard emulsifiable concentrate consists of 25 parts of test compound, 65 parts of xylene and 10 parts octylphenoxy polyethoxy ethanol of average molecular weight equal to 628 and having from 9 to 10 ethylene oxide units.
The skin of each mouse is examined carefully for encapsulated live larvae four days after treatment. Effectiveness of the treatments is determined by comparing numbers of larvae encapsulated in treated mice with numbers found in untreated control mice. Usually 3 mice/concentration are treated. if mice or the larvae are killed at the initial concentration of 1%, lower concentrations (0.6, 0.3, 0.2, 0.1%, etc.) are tested until there is no systemic activity or the mice survive.
Mortality data are subjected to log-prohibit analysis in order to determine dosages or concentrations that kill 50 or 90% of the larvae.

Compound | Dermal (mice) Dosage % LC50 | Dermal (mice) Dosage % LC90
CC(C)C(C(=O)OC(C#N)c1cccc(Oc2ccccc2)c1)c1ccc(OC(F)F)cc1 (racemic) [(±)-α-cyano-m-phenoxybenzyl (+)-α-isopropyl-4-difluoromethox] [(±)-α-Cyano-m-phenoxybenzyl(+)-α-isopropyl 4-difluoromethoxyphenylacetate] | .0030% | .0056%
CC(C)C(C(=O)OC(C#N)c1cccc(Oc2ccccc2)c1)c1ccc(OC(F)F)cc1 (stereo not drawn) [α-cyano-m-phenoxybenzyl α-isopropyl-4-difluoromethoxyphenyla] [α-Cyano-m-phenoxybenzyl α-isopropyl-4-difluoromethoxyphenylacetate] | .0067% | .015%
